For one test, the target named is T1, hSSTR4 (Homo sapiens, UniProt P31391).
T1 construct: expressed in transfected cells
Briefly: inhibition of cAMP via hSSTR4. Type of test: cell-based. Particulars: for EC50: cAMP inhibition, Table C, read-out: hSST4 (EC50); for hSST4/hSST2 (ratio): selectivity for inhibition of cAMP via hSSTR2 vs. hSSTR4. An excerpt: General overview: All five SSTR subtypes are Gi coupled G-protein coupled receptors (GPCRs) that lead to decreases in intracellular cyclic AMP (cAMP) when activated by an agonist. Therefore, measurement of intracellular cAMP levels can be used to assess whether compounds of the invention are agonists of SSTR subtypes (John Kelly, Troy Stevens, W. Joseph Thompson, and Roland Seifert, Current Protocols in Pharmacology, 2005, 2.2.1-2.2). One example of an intracellular cAMP assay is described below. cAMP assay protocol:
Four days prior to the assay, 5,000 Chinese hamster ovary cells (CHO-K1, ATCC #CCL-61) stably expressing the human somatostatin receptor subtype 2 are plated in each well of a 96-well tissue culture-treated plate in Ham's F12 growth media (ThermoFisher #10-080-CM) supplemented with 10% donor bovine serum (Gemini Bio-Products #100-506), 100 U/mL penicillin; 100 ug/mL streptomycin; 2 mM L-glutamine (Gemini Bio-Products #400-110) and 0.2 mg/mL hygromycin B (GoldBio #31282-04-9). The cells are cultured at 37° C., 5% CO2 and 95% humidity. On the day of the assay, the media is aspirated and the cells are treated with 50 μL of 1.6 μM NKH477 (Sigma #N3290) plus various dilutions of compounds of the invention in assay buffer [1× Hank's Balanced Salt Solution (ThermoFisher #SH3058802), 0.5 mM HEPES pH 7.4, 0.1% bovine serum albumin, 0.2 mM 3-Isobutyl-1-methylxanthine (IBMX, VWR #200002-790)]. The cells are incubated for 20 minutes at 37° C. (the final concentration of the compounds of the invention are typically 0-10,000 nM). The cells are treated with 50 μL of lysis buffer (HRTF cAMP kit, Cisbio). The lysate is transferred to 384-well plates and cAMP detection and visualization antibodies are added and incubated for 1-24 hours at room temperature. The time-resolved fluorescent signal is read with a Tecan M1000Pro multiplate reader. The intracellular cAMP concentrations are calculated by regression to a standard curve and are plotted vs. the concentration of the compounds of the invention and the EC50 of the compounds are calculated using standard methods. All data manipluations are in GraphPad Prism v6.

In test [1] the target is T2, human somatostatin receptor subtype 2 (Homo sapiens, UniProt P30874).
T2 construct: expressed in transfected cells
Kind of test: cAMP functional assay for SSTR2 agonists. The format is cell-based. The method, boiled down:
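CHO-K1 cells stably expressing human SSTR2 were treated for 20 min at 37 °C with compound plus NKH477 (added as 1.6 μM) in HBSS with IBMX. Intracellular cAMP was measured by HTRF against a standard curve. EC50 values came from concentration-response curves.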

The target of a further test is T3, human CYP2D6 isozyme (Homo sapiens, UniProt P10635).
T3 construct: purchased ThermoFisher Scientific P2972
Briefly: CYP2D6 assay (Vivid CYP2D6 Blue Screening Kit). Type of test: in vitro ADME. Particulars: CYP450 microsomes, fluorogenic substrate; read-out: CYP2D6 inh. On the procedure: On the day of the assay, various dilutions of test articles of the invention are prepared in assay buffer (Vivid® CYP2D6 Blue Screening Kit, ThermoFisher Scientific #P2972) and dilutions are added to a preparation of CYP450 microsomes expressing the functional human CYP2D6 isozyme (supplied by the kit) and incubated for 15 minutes at 37° C. to allow interactions between the test article of invention and the enzyme in the absence of enzyme turnover. The enzymatic reaction is initiated by addition of the NADPH co-factor in the precense of the fluorogenic substrate. Under normal conditions, this substrate (which is not fluorescent) is cleaved by active CYP2D6 to produce a a fluorescent product. When in the presence of test article, the lack of appearance of the fluorescent product is evidence of inhibition of the CYP2D6 enzyme by the test article. The enzymatic reaction is allowed to proceed for 30 minutes at […] and then terminated by the addition of 0.5 M Tris pH 10.8. The concentration of fluorescent cleavage product is measured using spectroscopic parameters prescribed in the kit with a Tecan M1000Pro multiplate reader. The percent inhibition is calculated based on the fluorescence intensity observed in the presence of the positive control inhibitor, quinidine (Sigma #Q3625), included in each assay. The percent inhibition is plotted versus test article concentration and an IC50 for CYP2D6 inhibition is calculated using standard methods. All data manipluations are in GraphPad Prism v6.

The target of the next test is T4, hERG ion channel (Homo sapiens, UniProt Q12809).
T4 construct: purchased ThermoFisher Scientific PV5365
Briefly: hERG fluorescence polarization assay (Predictor kit). Type of test: binding. The note with it: tracer displacement, membrane fractions; read-out: hERG inh. The protocol:
On the day of the assay, various dilutions of test articles of the invention are prepared in assay buffer (Predictor™ hERG Fluorescence Polarization Assay Kit, ThermoFisher Scientific #PV5365) and dilutions are added to membranes fractions that contain the functional hERG ion channel (supplied by the kit). […] Under normal conditions, the tracer binds to the hERG channel and the fluorecence polarization measured is high. […] The concentration of free tracer is measured via fluorescence polarization using parameters prescribed in the kit with a Tecan M1000Pro multiplate reader. […] The fluorescence polarization is plotted versus test article concentration and an IC50 for hERG inhibition is calculated using standard methods. All data manipluations are in GraphPad Prism v6.

Where [2] appears, read: cAMP inhibition, Table C, read-out: hSST2 (EC50).
[3] abbreviates: inhibition of cAMP activities via human SST2 receptor (SSTR2), CHO-K1 cells, read-out: EC50.

Read-outs that look alike come from different tables or passages of the source.

T1 sequence (P31391 whole entry): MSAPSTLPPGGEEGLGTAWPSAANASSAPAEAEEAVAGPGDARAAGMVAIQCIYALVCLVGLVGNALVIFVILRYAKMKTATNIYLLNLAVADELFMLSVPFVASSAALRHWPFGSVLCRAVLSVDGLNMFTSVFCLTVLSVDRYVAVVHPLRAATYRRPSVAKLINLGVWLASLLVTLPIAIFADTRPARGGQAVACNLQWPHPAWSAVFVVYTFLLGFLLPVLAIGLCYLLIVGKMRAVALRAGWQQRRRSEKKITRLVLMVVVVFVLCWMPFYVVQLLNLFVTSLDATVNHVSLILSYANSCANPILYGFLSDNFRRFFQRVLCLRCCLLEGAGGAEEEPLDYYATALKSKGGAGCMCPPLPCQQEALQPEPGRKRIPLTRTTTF
T3 sequence (P10635 whole entry): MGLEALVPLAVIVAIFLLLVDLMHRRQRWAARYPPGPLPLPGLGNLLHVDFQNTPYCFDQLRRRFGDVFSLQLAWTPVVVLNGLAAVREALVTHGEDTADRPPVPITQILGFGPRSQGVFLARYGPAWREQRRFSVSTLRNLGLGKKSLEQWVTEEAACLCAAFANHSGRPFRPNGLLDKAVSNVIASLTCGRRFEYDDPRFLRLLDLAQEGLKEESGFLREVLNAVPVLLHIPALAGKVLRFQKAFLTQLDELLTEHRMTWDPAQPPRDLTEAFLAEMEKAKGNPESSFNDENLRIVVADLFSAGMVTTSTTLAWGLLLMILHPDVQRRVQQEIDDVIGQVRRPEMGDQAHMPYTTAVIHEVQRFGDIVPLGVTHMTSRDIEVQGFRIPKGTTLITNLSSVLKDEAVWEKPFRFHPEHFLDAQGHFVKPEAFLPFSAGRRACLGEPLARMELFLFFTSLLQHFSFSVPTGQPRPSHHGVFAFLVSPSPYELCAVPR
T2 sequence (P30874 whole entry): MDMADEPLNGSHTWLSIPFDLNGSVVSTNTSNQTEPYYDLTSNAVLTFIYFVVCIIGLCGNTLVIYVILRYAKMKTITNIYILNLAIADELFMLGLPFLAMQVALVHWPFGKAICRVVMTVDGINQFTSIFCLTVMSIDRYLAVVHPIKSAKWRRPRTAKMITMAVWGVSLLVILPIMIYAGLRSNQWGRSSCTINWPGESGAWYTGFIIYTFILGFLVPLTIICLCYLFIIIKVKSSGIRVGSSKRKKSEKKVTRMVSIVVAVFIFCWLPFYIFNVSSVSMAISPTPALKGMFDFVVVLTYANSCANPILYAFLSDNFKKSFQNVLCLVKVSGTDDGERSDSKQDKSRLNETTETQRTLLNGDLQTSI
T4 sequence (Q12809 whole entry): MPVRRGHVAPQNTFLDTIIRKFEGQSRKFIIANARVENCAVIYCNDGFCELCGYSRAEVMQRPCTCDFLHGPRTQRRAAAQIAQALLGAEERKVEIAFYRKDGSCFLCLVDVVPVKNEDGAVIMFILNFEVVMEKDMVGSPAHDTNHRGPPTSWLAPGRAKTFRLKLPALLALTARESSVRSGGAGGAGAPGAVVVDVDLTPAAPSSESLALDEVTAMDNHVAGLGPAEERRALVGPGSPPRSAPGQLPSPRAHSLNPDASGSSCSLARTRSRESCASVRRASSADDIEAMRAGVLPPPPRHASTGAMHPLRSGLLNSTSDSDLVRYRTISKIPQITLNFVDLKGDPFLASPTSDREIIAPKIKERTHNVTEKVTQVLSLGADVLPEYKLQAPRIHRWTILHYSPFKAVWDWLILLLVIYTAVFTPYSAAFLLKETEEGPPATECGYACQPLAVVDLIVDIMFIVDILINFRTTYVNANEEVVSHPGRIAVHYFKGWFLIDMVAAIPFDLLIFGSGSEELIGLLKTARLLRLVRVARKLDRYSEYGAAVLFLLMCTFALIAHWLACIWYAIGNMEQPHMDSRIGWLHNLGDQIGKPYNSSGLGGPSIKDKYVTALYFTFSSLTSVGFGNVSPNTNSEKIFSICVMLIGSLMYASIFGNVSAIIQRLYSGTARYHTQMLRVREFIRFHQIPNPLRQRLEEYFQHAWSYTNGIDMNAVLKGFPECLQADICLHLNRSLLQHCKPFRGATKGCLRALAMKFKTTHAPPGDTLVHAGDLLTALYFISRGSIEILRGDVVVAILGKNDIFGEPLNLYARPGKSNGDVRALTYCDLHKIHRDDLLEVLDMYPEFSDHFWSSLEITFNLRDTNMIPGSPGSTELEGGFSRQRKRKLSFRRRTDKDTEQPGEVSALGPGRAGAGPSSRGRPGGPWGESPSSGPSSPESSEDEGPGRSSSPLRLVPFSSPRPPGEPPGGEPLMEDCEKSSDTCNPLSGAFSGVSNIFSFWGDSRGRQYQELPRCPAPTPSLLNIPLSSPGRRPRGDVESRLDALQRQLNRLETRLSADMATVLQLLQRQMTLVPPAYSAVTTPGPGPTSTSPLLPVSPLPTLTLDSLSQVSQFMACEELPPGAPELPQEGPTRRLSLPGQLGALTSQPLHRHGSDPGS

With `Cc1cc(F)cc(-c2cnc(N)c(-c3nc4cc(Cl)ccc4[nH]3)c2N2CCC(N)CC2)c1` [Compound 1-1, 4-(4-aminopiperidin-1-yl)-3-(5-chloro-1H-1,3-benzodiazol-2-yl)-5-(3-fluoro-5-methylphenyl)pyridin-2-amine], the EC50 (commonly the midpoint of the concentration-response curve) at hSSTR4 was 0.7 nM; in test [1] (setting [2]) it was 0.03 nM; in test [1] (setting [3]) it was below 10 nM. Also, the “hSST4/hSST2 (ratio)” value on hSSTR4 was “b (between 15 and 50)”. In addition, the IC50 at human CYP2D6 isozyme and at hERG ion channel was above 5000 nM throughout.

Consider `Cc1cc(F)cc(-c2cnc(N)c(-c3nc4cc(F)cc(F)c4[nH]3)c2N2CCC(N)CC2)c1` [Compound 1-2, 4-(4-aminopiperidin-1-yl)-3-(5,7-difluoro-1H-1,3-benzodiazol-2-yl)-5-(3-fluoro-5-methylphenyl)pyridin-2-amine], for which the values for the half-maximal effective concentration (EC50) (at hSSTR4; in test [1] (setting [2]); in test [1] (setting [3])) were 1.3 nM, 0.05 nM and below 10 nM, respectively. For the same molecule, the “hSST4/hSST2 (ratio)” value at hSSTR4 was “b (between 15 and 50)”. Besides, the IC50 on human CYP2D6 isozyme and at hERG ion channel was above 5000 nM in each case.

Regarding `Cc1cc(F)cc(-c2cnc(N)c(-c3nc4cc(F)ccc4[nH]3)c2N2CCC(N)CC2)c1` [Compound 1-6, 4-(4-aminopiperidin-1-yl)-3-(5-fluoro-1H-1,3-benzodiazol-2-yl)-5-(3-fluoro-5-methylphenyl)pyridin-2-amine], the EC50 was 0.92 nM on hSSTR4, 0.06 nM in test [1] (setting [2]) and below 10 nM in test [1] (setting [3]). The “hSST4/hSST2 (ratio)” value on hSSTR4 was “b (between 15 and 50)”. Besides, the IC50 at human CYP2D6 isozyme and on hERG ion channel was above 5000 nM throughout.

Turning to `Cc1cc(F)cc(-c2cnc(N)c(-c3nc4cccc(F)c4[nH]3)c2N2CCC(N)CC2)c1` [Compound 1-11, 4-(4-aminopiperidin-1-yl)-3-(7-fluoro-1H-1,3-benzodiazol-2-yl)-5-(3-fluoro-5-methylphenyl)pyridin-2-amine], the EC50 on hSSTR4 was 0.71 nM; in test [1] (setting [2]), 0.27 nM; in test [1] (setting [3]) it was below 10 nM. Further, the “hSST4/hSST2 (ratio)” value at hSSTR4 is “c (between 2.5 and 15)”. Further, the IC50 on human CYP2D6 isozyme and at hERG ion channel was above 5000 nM each time.

As to `Cc1cc(F)cc(-c2cnc(N)c(-c3nc4cc(C#N)ccc4[nH]3)c2N2CCC(N)CC2)c1` [Compound 1-12, 2-[2-amino-4-(4-aminopiperidin-1-yl)-5-(3-fluoro-5-methylphenyl)pyridin-3-yl]-1H-1,3-benzodiazole-5-carbonitrile], the values for the concentration giving a half-maximal response (EC50) (on hSSTR4; in test [1] (setting [2]); in test [1] (setting [3])) were 14 nM, 0.06 nM and below 10 nM, respectively. Moreover, on hSSTR4, the “hSST4/hSST2 (ratio)” value is recorded as “a (above 50)”. The IC50 on human CYP2D6 isozyme and at hERG ion channel was above 5000 nM each time.

`CNc1ncc(-c2cc(C)cc(F)c2)c(N2CCC(N)CC2)c1-c1nc2cc(F)cc(F)c2[nH]1` [Compound 1-48, 4-(4-aminopiperidin-1-yl)-3-(5,7-difluoro-1H-1,3-benzodiazol-2-yl)-5-(3-fluoro-5-methylphenyl)-N-methylpyridin-2-amine]: the EC50 is 15 nM at hSSTR4, 0.18 nM in test [1] (setting [2]) and below 10 nM in test [1] (setting [3]). Further, the “hSST4/hSST2 (ratio)” value at hSSTR4 is “a (above 50)”. Also, the IC50 on human CYP2D6 isozyme and at hERG ion channel was above 5000 nM in each case.

As for `COc1cc(F)cc2nc(-c3c(C)ncc(-c4cc(C)cc(F)c4)c3N3CCC(N)CC3)[nH]c12` [Compound 2-15, 1-[3-(5-fluoro-7-methoxy-1H-1,3-benzodiazol-2-yl)-5-(3-fluoro-5-methylphenyl)-2-methylpyridin-4-yl]piperidin-4-amine], the “hSST4/hSST2 (ratio)” value at hSSTR4 is “c (between 2.5 and 15)”. Also, in test [1] (setting [3]), the EC50 is below 10 nM.

With `COc1cc(F)cc2nc(-c3c(N(C)C)ncc(-c4cc(C)cc(F)c4)c3N3CCC(N)CC3)[nH]c12` [Compound 4-6, 4-(4-aminopiperidin-1-yl)-3-(5-fluoro-7-methoxy-1H-1,3-benzodiazol-2-yl)-5-(3-fluoro-5-methylphenyl)-N,N-dimethylpyridin-2-amine], on hSSTR4, the “hSST4/hSST2 (ratio)” value was “b (between 15 and 50)”. Further, in test [1] (setting [3]), the EC50 was below 10 nM.

Consider `COc1cc(F)cc2nc(-c3c(N4CC(F)C4)ncc(-c4cc(C)cc(F)c4)c3N3CCC(N)CC3)[nH]c12` [Compound 4-7, 1-[3-(5-fluoro-7-methoxy-1H-1,3-benzodiazol-2-yl)-5-(3-fluoro-5-methylphenyl)-2-(3-fluoroazetidin-1-yl)pyridin-4-yl]piperidin-4-amine], for which the “hSST4/hSST2 (ratio)” value at hSSTR4 is listed as “a (above 50)”. The concentration for a half-maximal effect (EC50) in test [1] (setting [3]) is below 10 nM.

Consider `Cc1cc(F)cc(-c2cnc(N3CCOCC3)c(-c3nc4cc(F)cc(F)c4[nH]3)c2N2CCC(N)CC2)c1` [Compound 4-8, 1-[3-(5,7-difluoro-1H-1,3-benzodiazol-2-yl)-5-(3-fluoro-5-methylphenyl)-2-(morpholin-4-yl)pyridin-4-yl]piperidin-4-amine], for which the “hSST4/hSST2 (ratio)” value on hSSTR4 is on record as “a (above 50)”. Also, the EC50 in test [1] (setting [3]) was below 10 nM.

On to `Cc1cc(F)cc(-c2cncc(-c3nc4cc(C#N)ccc4[nH]3)c2N2CCC(N)CC2)c1` [R^1=H, R^5=H, R^6=5-CN, R^7=H, reference compound], for which the EC50 at hSSTR4 was 1.2 nM; in test [1] (setting [2]), 0.13 nM. The “hSST4/hSST2 (ratio)” value at hSSTR4 is “c (between 2.5 and 15)”. In addition, the values for the IC50 at human CYP2D6 isozyme and at hERG ion channel were above 5000 nM and below 5000 nM, respectively.

Turning to `Cc1cc(F)cc(-c2cncc(-c3nc4cc(F)ccc4[nH]3)c2N2CCC(N)CC2)c1` [R^1=H, R^5=H, R^6=5-F, R^7=H, reference compound], the concentration giving a half-maximal response (EC50) on hSSTR4 was determined as 0.12 nM. The IC50 at human CYP2D6 isozyme was below 5000 nM.

Regarding `Cc1cc(F)cc(-c2cncc(-c3nc4cccc(F)c4[nH]3)c2N2CCC(N)CC2)c1` [R^1=H, R^5=H, R^6=H, R^7=7-F, reference compound], the concentration giving a half-maximal response (EC50) at hSSTR4 stood at 0.09 nM; in test [1] (setting [2]) it was 0.43 nM. Further, at hSSTR4, the “hSST4/hSST2 (ratio)” value is “e (below 1)”. For the same molecule, the IC50 at human CYP2D6 isozyme was below 5000 nM; at hERG ion channel, above 5000 nM.

The record behind these values is US11072598B2, “Somatostatin modulators and uses thereof” (CRINETICS PHARMACEUTICALS, INC., priority 2017, dated 2021).
